This is an account of results in patent US10711007B2, “Selective inhibitors of protein arginine methyltransferase 5 (PRMT5)” (Prelude Therapeutics, Incorporated, priority 2018, dated 2020).

One experiment has as its target PRMT5/MEP50 complex (Homo sapiens (Human), UniProt O14744). The experiment is described as follows: Biochemical assay: PRMT5/MEP50 methylation of histone H4 based AcH4-23, SPA readout. Conditions: PRMT5/MEP50 2.5 nM, 300 nM AcH4-23, 1 μM 3H-SAM. On the procedure: Biochemical Assay Protocol
Compounds were solubilized and 3-fold diluted in 100% DMSO. […] Standard reactions were performed in a total volume of 30 μl in assay buffer, with 300 nM histone H4 based AcH4-23 (Anaspec: AS-65002) as substrate. To this was added the PRMT5/MEP50 complex diluted to provide a final assay concentration of 2.5 nM and the compounds were allowed to preincubate for 20 minutes at 37° C. The reaction was initiated by adding S-[3H-methyl]-adenosyl-L-methionine (PerkinElmer: NET155001MC) to final concentration of 1 μM. Following a 30 minutes incubation at 37° C., the reaction was stopped by adding 25 μL of 8M Guanidine HCl. Prepare streptavidin YSI SPA beads (Perkinelmer: RPNQ0012) at 0.3 mg/mL in assay buffer. To each reaction, add 150 μL of SPA beads suspension, and incubated while shaking at room temperature for 30 minutes. The plate was centrifuged at 100×g for 30 second before reading in a scintillation counter. IC50 values were determined by fitting the data to the standard 4 parameters with Hill Slope using GraphPad Prism software.

The test system of experiment [1] is sDMA marks (SmD3me2s) in U-87 MG cells. Nature of the experiment: Western blotting for symmetric di-methyl arginine (sDMA) marks in U-87 MG cells. It is filed as cell-based. Conditions: Homo sapiens, 72 h; U-87 MG cell line, 3 days. On the procedure:
Cell Treatment and Western Blotting for Detecting Symmetric Di-Methyl Arginine (sDMA) Marks
Compound Titration and Cell Culture:
Compounds were dissolved in DMSO to make 10 mM stock and 3-fold series dilutions were further conducted to make working stocks top at 1 mM. Granta-519 cells were maintained in PRMI 1640 (Corning Cellgro, Catalog #: 10-040-CV) supplemented with 10% v/v FBS (GE Healthcare, Catalog #: SH30910.03) and U-87 MG cells were maintained in DMEM (Corning Cellgro, Catalog #: 10-013-CV) with 10% FBS and 2 mM Glutamin (Corning Cellgro, Catalog #25005CV).
To determine enzyme inhibition IC50 values in Granta-519 and U-87 MG cells using Western Blot analysis. One day before experiment, Granta-519 cells were passaged to a density of 0.5×10^6 cells/ml. U-87 MG cells were trypsinized and 4×10^5 cells were seeded into 6-well plates and allow to grow overnight. The next day, Granta-519 cells were spun down at 1,500 rpm for 4 min, resuspend in fresh medium at 0.5×10^6 cells/ml and 3 mL of culture (1.5×10^6 cells) were seeded into 6 well plate. Eight-point, 3-fold serial dilutions of compound working stocks were added to cells (3 ul, 1:1,000 dilution, DMSO concentration was 0.1%; final top concentration at 1 uM) and incubated for 3 days. Cells incubated with DMSO was used as a vehicle control.
Cells were harvested 3 days later, resuspended in 15 uL PBS, lysed in 4% SDS, and homogenized by passing through homogenizer column (Omega Biotek, Catalog #: HCR003). Total protein concentrations were determined by BCA assay (ThermoFisher Scientific, Catalog #: 23225). Lysates were mixed with 5× Laemmli buffer and boiled for 5 min. Forty ug of total protein was separated on SDS-PAGE gels (Bio-Rad, catalog #: 4568083, 4568043), transferred to PVDF membrane, blocked with 5% dry milk (Bio-Rad, Catalog #: 1706404) in TBS with 0.1% v/v Tween 20 (TBST) for 1 hour at room temperature (RT), and incubated with primary antibodies (sDMA: Cell signaling, Catalog #: 13222, 1:3,000; β-Actin: sigma, Catalog #: 1:5,000) in 5% dry milk in TBST at 4° C. overnight. The next day, membranes were washed with TBST, 5×5 min, and incubated with HRP conjugated seconded antibody (GE Healthcare; Catalog #: NA934-1ML, NA931-1ML; 1:5,000) for 2 hours at RT, followed by 5×5 min washes with TBST, and incubation with ECL substrates (Bio-Rad, Catalog #: 1705061, 1705062). Chemiluminescent signal was captured with Fluochem HD2 imager (Proteinsimple). SmD3me2s bands were quantified by ImageJ. Signals were normalized to β-Actin and DMSO control. IC50 values were calculated using Graphpad Prism ([Inhibitor] vs. normalized response-Variable slope).
(In general: Immunoblotting shows a protein as a band on a membrane.)

The subject of another experiment is U-87 MG cells. Nature of the experiment: Cell proliferation assay (CCK-8, day 10) in U-87 MG cells. It is filed as cell-based. Conditions: Homo sapiens, 240 h, U-87 MG cell line, read-out: Prolif. IC50. On the procedure: Cell Proliferation Assay to Determine IC50 in Granta-519 and U-87 MG Cells
One day before experiment, Granta-519 cells were passaged to a density of 0.5×10^6 cells/ml. U-87 MG cells were trypsinized and 2,000 cells were seeded into 96-well plates and allow to grow overnight. On the day of experiment (day 0), Granta-519 Cells were spun down at 1,500 rpm for 4 min, resuspended in fresh medium to 0.5×10^6 cells/ml and 190 ul of cells were added to 96 well plates. For U-87 MG cells, old medium was removed and replaced with 190 uL fresh medium. Compound working stocks were first diluted at 1:50 with fresh medium in 96 well plate and 10 μL of diluted drugs were added to 96 well plates containing cells and incubated for 3 days. DMSO was used a vehicle control.
One day 3, 50 uL of Granta-519 cells were transferred to a new 96-well plate and 140 uL fresh medium was added. For U-87 MG cells, old medium was removed and replaced with 190 uL fresh medium. Compound working stocks were freshly diluted at 1:50 with medium and 10 μL of diluted drugs were added to cells and grow for 3additional days. The same process was repeated on day 6. Cells were allowed to grow for additional 4 days.
On day 10, 100 uL Granta-519 cells were transferred to a new 96 well plate and 10 μL of Cell Counting Kit-8 (CCK-8, Jojindo, CK04-13) solution was added. For U-87 MG cells, old medium was removed and replaced with 100 uL fresh medium and 10 uL CCK-8 solution was added. Plates were incubated in CO2 incubator for 2 hours (Granta-519 cells) or 30 min (U-87 MG cells) and OD450 values were measured with a microplate reader (iMark microplate reader, Bio-Rad). Percentage of viable cells, relative to DMSO vehicle control, were calculated and plotted in Graphpad Prism ([Inhibitor] vs. normalized response-Variable slope) to determine proliferation IC50 values on day 10.

PRMT5/MEP50 complex, sequence (O14744 whole entry): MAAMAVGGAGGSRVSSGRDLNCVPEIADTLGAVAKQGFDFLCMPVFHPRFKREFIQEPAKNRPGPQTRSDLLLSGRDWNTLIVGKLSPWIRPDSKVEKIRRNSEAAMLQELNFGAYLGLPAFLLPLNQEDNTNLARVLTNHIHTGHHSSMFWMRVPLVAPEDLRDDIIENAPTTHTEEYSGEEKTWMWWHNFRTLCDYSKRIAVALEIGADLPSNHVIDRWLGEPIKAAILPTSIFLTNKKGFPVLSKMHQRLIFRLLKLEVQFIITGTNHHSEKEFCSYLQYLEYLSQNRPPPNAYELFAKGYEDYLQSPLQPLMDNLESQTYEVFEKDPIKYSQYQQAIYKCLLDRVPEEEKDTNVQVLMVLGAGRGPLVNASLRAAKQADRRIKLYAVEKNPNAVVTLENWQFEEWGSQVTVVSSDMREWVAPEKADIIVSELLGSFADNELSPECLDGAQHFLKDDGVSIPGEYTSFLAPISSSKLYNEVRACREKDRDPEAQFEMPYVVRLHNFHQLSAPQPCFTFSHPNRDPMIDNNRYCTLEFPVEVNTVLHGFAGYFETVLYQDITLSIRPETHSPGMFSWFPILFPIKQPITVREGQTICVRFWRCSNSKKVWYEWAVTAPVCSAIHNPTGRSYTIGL
PRMT5/MEP50 complex, sequence (Q9BQA1 whole entry partner): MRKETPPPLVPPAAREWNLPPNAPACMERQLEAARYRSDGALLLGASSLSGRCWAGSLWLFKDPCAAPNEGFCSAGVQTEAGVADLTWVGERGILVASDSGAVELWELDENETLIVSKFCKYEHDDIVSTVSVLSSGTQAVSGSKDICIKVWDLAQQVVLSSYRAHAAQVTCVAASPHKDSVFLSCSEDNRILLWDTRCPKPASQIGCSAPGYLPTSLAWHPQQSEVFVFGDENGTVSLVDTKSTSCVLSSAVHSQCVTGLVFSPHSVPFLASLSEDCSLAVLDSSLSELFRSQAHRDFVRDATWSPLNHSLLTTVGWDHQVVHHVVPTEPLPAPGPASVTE

As a reminder, the IC50 is the concentration needed to halve the response being measured. On to `CNc1ncnc2c1ccn2[C@@H]1O[C@H]([C@@H]2OCCc3cc(Cl)ccc32)[C@@H](O)[C@H]1O` [Example 69, (2S,3S,4R,5R)-2-((R)-6-chloroisochroman-1-yl)-5-(4-(methylamino)-7H-pyrrolo[2,3-d]pyrimidin-7-yl)tetrahydrofuran-3,4-diol], for which the figures for the 50% inhibitory concentration (IC50) (at PRMT5/MEP50 complex; in experiment [1]; in the experiment on U-87 MG cells) were 14.9 nM, 109 nM and 181 nM, respectively.

For the compound `Cc1ncnc2c1ccn2[C@@H]1O[C@H]([C@@H]2OCCc3ccc(Cl)cc32)[C@@H](O)[C@H]1O` [Example 70, (2S,3S,4R,5R)-2-((R)-7-chloroisochroman-1-yl)-5-(4-methyl-7H-pyrrolo[2,3-d]pyrimidin-7-yl)tetrahydrofuran-3,4-diol], the IC50 against PRMT5/MEP50 complex stood at 303 nM; in experiment [1], 382 nM; with U-87 MG cells it was 458 nM.

With `Cc1ncnc2c1ccn2[C@@H]1O[C@H]([C@@H]2OCCc3cc(Cl)c(Cl)cc32)[C@@H](O)[C@H]1O` [Example 87, (2S,3S,4R,5R)-2-((R)-6,7-dichloroisochroman-1-yl)-5-(4-methyl-7H-pyrrolo[2,3-d]pyrimidin-7-yl)tetrahydrofuran-3,4-diol], the concentration for half-maximal inhibition (IC50) against PRMT5/MEP50 complex worked out at 7.7 nM; in experiment [1], 120 nM; in the experiment on U-87 MG cells, 509 nM.

On to `Cc1ncnc2c1ccn2[C@@H]1O[C@H]([C@@H]2OCCc3c(Cl)cccc32)[C@@H](O)[C@H]1O` [Example 75, (2S,3S,4R,5R)-2-((R)-5-chloroisochroman-1-yl)-5-(4-methyl-7H-pyrrolo[2,3-d]pyrimidin-7-yl)tetrahydrofuran-3,4-diol], for which the IC50 against PRMT5/MEP50 complex was determined as 15.1 nM; in the experiment on U-87 MG cells, 339 nM.

As for `Nc1ncnc2c1ccn2[C@@H]1O[C@H]([C@@H]2OCCc3c(Cl)cccc32)[C@@H](O)[C@H]1O` [Example 72, (2R,3R,4S,5S)-2-(4-amino-7H-pyrrolo[2,3-d]pyrimidin-7-yl)-5-((R)-5-chloroisochroman-1-yl)tetrahydrofuran-3,4-diol], the IC50 on PRMT5/MEP50 complex is 2.98 nM; in the experiment on U-87 MG cells, 78 nM.

Consider `Nc1ncnc2c1ccn2[C@@H]1O[C@H]([C@@H]2OCCc3ccc(Cl)cc32)[C@@H](O)[C@H]1O` [Example 71, (2R,3R,4S,5S)-2-(4-amino-7H-pyrrolo[2,3-d]pyrimidin-7-yl)-5-((R)-7-chloroisochroman-1-yl)tetrahydrofuran-3,4-diol], for which the IC50 against PRMT5/MEP50 complex amounted to 6.2 nM; in experiment [1] it was 29.7 nM; in the experiment with U-87 MG cells it was 73 nM.

In the case of `Cc1ncnc2c1ccn2[C@@H]1O[C@H]([C@@H]2OCOCc3cc(Cl)ccc32)[C@@H](O)[C@H]1O` [Example 55, (2S,3S,4R,5R)-2-((R)-7-chloro-1,5-dihydrobenzo[e][1,3]dioxepin-1-yl)-5-(4-methyl-7H-pyrrolo[2,3-d]pyrimidin-7-yl)tetrahydrofuran-3,4-diol], the IC50 against PRMT5/MEP50 complex stood at 11.7 nM; in experiment [1], 4580 nM; in the experiment with U-87 MG cells it was 10000 nM.

With `Nc1ncnc2c1ccn2[C@@H]1O[C@H]([C@@H]2OCCc3c2ccc(Cl)c3F)[C@@H](O)[C@H]1O` [Example 84, (2R,3R,4S,5S)-2-(4-amino-7H-pyrrolo[2,3-d]pyrimidin-7-yl)-5-((R)-6-chloro-5-fluoroisochroman-1-yl)tetrahydrofuran-3,4-diol], the values for the IC50 (against PRMT5/MEP50 complex; in experiment [1]; in the experiment on U-87 MG cells) were 4.4 nM, 27.6 nM and 94 nM, respectively.

`Nc1ncnc2c1ccn2[C@@H]1C[C@H]([C@@H]2OCc3cc(Cl)ccc32)[C@@H](O)[C@H]1O` [Example 2B, (1R,2S,3R,5S)-3-(4-amino-7H-pyrrolo[2,3-d]pyrimidin-7-yl)-5-((S)-5-chloro-1,3-dihydroisobenzofuran-1-yl)cyclopentane-1,2-diol]: the figures for the IC50 (at PRMT5/MEP50 complex; in experiment [1]; in the experiment on U-87 MG cells) were 31 nM, 563 nM and more than 1000 nM, respectively.

On to `Cc1ncnc2c1ccn2[C@@H]1O[C@H]([C@@H]2OCOc3c2ccc(F)c3F)[C@@H](O)[C@H]1O` [Example 97, (2S,3S,4R,5R)-2-((R)-7,8-difluoro-4H-benzo[d][1,3]dioxin-4-yl)-5-(4-methyl-7H-pyrrolo[2,3-d]pyrimidin-7-yl)tetrahydrofuran-3,4-diol], for which the IC50 was determined as 4.7 nM on PRMT5/MEP50 complex, 51.7 nM in experiment [1] and 117 nM with U-87 MG cells.

For the compound `Cc1ncnc2c1ccn2[C@@H]1O[C@H]([C@@H]2OCCc3c2ccc(Cl)c3F)[C@@H](O)[C@H]1O` [Example 83, (2S,3S,4R,5R)-2-((R)-6-chloro-5-fluoroisochroman-1-yl)-5-(4-methyl-7H-pyrrolo[2,3-d]pyrimidin-7-yl)tetrahydrofuran-3,4-diol], the IC50 against PRMT5/MEP50 complex stood at 13.2 nM; in experiment [1] it was 199 nM; in the experiment on U-87 MG cells, 377 nM.

For the compound `Cc1ncnc2c1ccn2[C@@H]1O[C@H]([C@@H]2NCCc3cc(Cl)ccc32)[C@@H](O)[C@H]1O` [Example 98, (2R,3S,4R,5R)-2-[(1R)-6-chloro-1,2,3,4-tetrahydroisoquinolin-1-yl]-5-(4-methylpyrrolo[2,3-d]pyrimidin-7-yl)tetrahydrofuran-3,4-diol], the IC50 turned out to be 11.9 nM on PRMT5/MEP50 complex, 579 nM in experiment [1] and 662 nM with U-87 MG cells.

On to `Cc1ncnc2c1ccn2[C@@H]1O[C@H]([C@@H]2OCCc3cc(F)c(F)cc32)[C@@H](O)[C@H]1O` [Example 74, (2S,3S,4R,5R)-2-((R)-6,7-difluoroisochroman-1-yl)-5-(4-methyl-7H-pyrrolo[2,3-d]pyrimidin-7-yl)tetrahydrofuran-3,4-diol], for which the IC50 at PRMT5/MEP50 complex came out at 7.28 nM; with U-87 MG cells, 66 nM.

On to `Nc1ncnc2c1ccn2[C@@H]1O[C@H]([C@@H]2OCCc3cc(F)c(F)cc32)[C@@H](O)[C@H]1O` [Example 73, (2R,3R,4S,5S)-2-(4-amino-7H-pyrrolo[2,3-d]pyrimidin-7-yl)-5-((R)-6,7-difluoroisochroman-1-yl)tetrahydrofuran-3,4-diol], for which the IC50 against PRMT5/MEP50 complex is 1.45 nM; with U-87 MG cells, 9.1 nM.
